From patent US6156790A, “C-10 carbon-substituted artemisinin-like trioxane compounds having antimalarial, antiproliferative and antitumor activities” (priority 1997, dated 2000)
“Also recorded” adds a separate entry of the source. Like-named read-outs stand apart in the source and are kept apart here.

Experiments:
[1] = test system: MDA-N; test: cells; format: cell-based; conditions: Homo sapiens
[2] = test system: IGROVI; test: cells; conditions: 60 cell, read-out: Log10 TGI
[3] = test system: OVCAR-8; test: NCI 60 cell line screen (SRB), ovarian cancer; format: cell-based; conditions: Homo sapiens
[4] = test system: U251; test: cells; format: cell-based; conditions: Homo sapiens
[5] = test system: CCRF-CEM; test: NCI 60 cell line screen (SRB), leukemia; format: cell-based; conditions: Homo sapiens, read-out: Log10 TGI (converted)
[6] = test system: M14; test: NCI 60 cell line screen (SRB), melanoma; conditions: Homo sapiens
[7] = test system: SNB-19; test: cells; format: cell-based; conditions: Homo sapiens
[8] = test system: ACHN; test: cells; conditions: Homo sapiens
[9] = test system: PC-3; test: cells; format: cell-based; conditions: Homo sapiens, PC-3
[10] = test system: MCF7; test: cells; format: cell-based; conditions: Homo sapiens, MCF7
[11] = test system: SK-MEL-2; test: cells; format: cell-based; conditions: Homo sapiens
[12] = test system: KM12; test: cells; format: cell-based; conditions: Homo sapiens, read-out: Log10 TGI (converted)
[13] = test system: HOP-92; test: NCI 60 cell line screen (SRB), non-small cell lung cancer; format: cell-based; conditions: Homo sapiens
[14] = test system: RXF 393; test: cells; conditions: Homo sapiens
[15] = test system: HCT-116; test: cells; format: cell-based; conditions: Homo sapiens
[16] = test system: TK-10; test: cells; format: cell-based; conditions: Homo sapiens, read-out: Log10 GI50 (converted)
[17] = test system: 60 cell line panel; test: NCI 60 cell line screen, whole panel; format: cell-based
[18] = test system: UO-31; test: NCI 60 cell line screen (SRB), renal cancer; format: cell-based; conditions: Homo sapiens, read-out: Log10 TGI (converted)
[19] = test system: SR; test: cells; format: cell-based; conditions: Homo sapiens, read-out: Log10 TGI (converted)
[20] = test system: A498; test: cells; format: cell-based; conditions: Homo sapiens
[21] = test system: NCI-H226; test: NCI 60 cell line screen (SRB), non-small cell lung cancer; format: cell-based; conditions: Homo sapiens
[22] = test system: NCI-H460; test: cells; format: cell-based; conditions: Homo sapiens
[23] = test system: HOP-62; test: cells; format: cell-based; conditions: Homo sapiens
[24] = test system: HCT-15; test: cells; format: cell-based; conditions: Homo sapiens, HCT-15; read-out: Log10 TGI (converted)
[25] = test system: T-47D; test: cells; format: cell-based; conditions: Homo sapiens, T47D; T-47D; read-out: Log10 TGI (converted)
[26] = test system: A549/ATCC; test: NCI 60 cell line screen (SRB), non-small cell lung cancer; format: cell-based; conditions: Homo sapiens
[27] = test system: MDA-MB231/ATCC; test: cells; format: cell-based; conditions: Homo sapiens
[28] = test system: SNB-75; test: cells; format: cell-based; conditions: Homo sapiens, read-out: Log10 TGI (converted)
[29] = test system: SW-620; test: NCI 60 cell line screen (SRB), colon cancer; format: cell-based; conditions: Homo sapiens, read-out: Log10 TGI (converted)
[30] = test system: MOLT-4; test: cells; conditions: Homo sapiens
Description: The screening assay is performed on a 96-well microtitre plates.
Dose response curves, shown in the above mentioned Figures, are obtained by exposing various cancer cell lines to compounds having a known concentration ([log10 M]), as discussed in detail above, and then plotting the percentage growth of each cell line for each concentration. […] As discussed previously, the five drug dilutions routinely tested range from 10^-4 to 10^-9 molar.

[31] = test system: NCI-H23; test: NCI 60 cell line screen (SRB), non-small cell lung cancer; format: cell-based; conditions: Homo sapiens
[32] = test system: EKVX; test: as above; format: cell-based; conditions: Homo sapiens
[33] = test system: BT-549; test: cells; format: cell-based; conditions: Homo sapiens
[34] = test system: HT29; test: cells; format: cell-based; conditions: Homo sapiens, HT-29, read-out: Log10 TGI (converted)
[35] = read-out: Log10 LC50 (converted)
[36] = read-out: Log10 TGI (converted)
[37] = read-out: Log10 GI50 (converted)

C[C@H]1[C@@H](CC(=O)c2ccc(C(=O)C[C@H]3O[C@@H]4O[C@@]5(C)CC[C@H]6[C@H](C)CC[C@@H]([C@H]3C)[C@@]46OO5)cc2)O[C@@H]2O[C@@]3(C)CC[C@H]4[C@H](C)CC[C@@H]1[C@@]24OO3 [Dimer 21]
CC50 [1, 35]: 39.8 µM | IC (TGI) [1, 36]: 5.75 µM | IC (TGI) [2]: 12 µM | CC50 [3, 35]: 41.7 µM | IC (TGI) [3, 36]: 12.3 µM | CC50 ([4]; U-251, read-out: Log10 LC50 (converted)): 41.7 µM | IC (TGI) ([4]; U-251, read-out: Log10 TGI (converted)): 17 µM | IC (TGI) [5]: 45700 µM | GI50 ([6]; M14, read-out: Log10 GI50 (converted)): 1.26 µM | CC50 ([6]; M14, read-out: Log10 LC50 (converted)): 45.7 µM | IC (TGI) ([6]; M14, read-out: Log10 TGI): 17.8 µM | GI50 [7, 37]: 0.537 µM | IC (TGI) [7, 36]: 41.7 µM | GI50 [8, 37]: 0.0195 µM | CC50 [8, 35]: > 100 µM | IC (TGI) ([8]; read-out: Log10 TGI): 69.2 µM | CC50 [9, 35]: 47.9 µM | IC (TGI) [9, 36]: 11.5 µM | CC50 [10, 35]: 53.7 µM | IC (TGI) [10, 36]: 13.2 µM | GI50 [11, 37]: 0.0389 µM | CC50 [11, 35]: 25.1 µM | IC (TGI) [11, 36]: 0.55 µM | IC (TGI) [12]: 14.5 µM | GI50 [13, 37]: 0.0708 µM | CC50 [13, 35]: 83.2 µM | IC (TGI) [13, 36]: 17.4 µM | GI50 ([14]; RXF 393, read-out: Log10 GI50 (converted)): 2.57 µM | CC50 ([14]; RXF 393, read-out: Log10 LC50 (converted)): 49 µM | IC (TGI) ([14]; RXF 393, read-out: Log10 TGI): 19.5 µM | CC50 [15, 35]: 51.3 µM | IC (TGI) [15, 36]: 12.6 µM | GI50 [16]: 0.00288 µM | GI50 ([17]; 60 cell, mean over panel, read-out: Log10 GI50 MG MID (converted)): 0.0589 µM | IC (TGI) ([17]; 60 cell, mean over panel, read-out: Log10 TGI MG MID (converted)): 93300 µM | CC50 ([17]; Homo sapiens, 60 cell, mean over panel, read-out: Log10 LC50 MG MID (converted)): 64.6 µM | potency compared with artemisinin ([17]; Tables III, IV and V): more potent than artemisinin | potency compared with paclitaxel ([17]; Tables III, IV and V): in most instances are as potent and in some instances more potent than paclitaxel; also recorded: equivalent to and in many instances higher in potency than paclitaxel | Log10 TGI Range ([17]; panel): 4.00 | IC (TGI) [18]: 57.5 µM | IC (TGI) [19]: > 100 µM | GI50 [20, 37]: 1.82 µM | CC50 [20, 35]: 64.6 µM | IC (TGI) [20, 36]: 19.1 µM | GI50 [21, 37]: 0.0832 µM | CC50 [21, 35]: > 100 µM | IC (TGI) [21, 36]: 28.2 µM | IC (TGI) ([22]; NCI-H460, read-out: Log10 TGI): > 100 µM | GI50 ([22]; NCI-H460, read-out: Log10 GI50 (converted)): 0.525 µM | CC50 ([22]; NCI-H460, read-out: Log10 LC50 (converted)): > 100 µM | GI50 [23, 37]: 0.417 µM | CC50 [23, 35]: 52.5 µM | IC (TGI) [23, 36]: 17.4 µM | IC (TGI) [24]: 24.5 µM | IC (TGI) [25]: 2.57 µM | CC50 [26, 35]: 37.2 µM | IC (TGI) [26, 36]: 13.5 µM | GI50 ([27]; MDA-MB-231, read-out: Log10 GI50 (converted)): 0.178 µM | CC50 ([27]; MDA-MB-231, read-out: Log10 LC50 (converted)): 46.8 µM | IC (TGI) ([27]; MDA-MB-231, read-out: Log10 TGI (converted)): 16.2 µM | IC (TGI) [28]: 34.7 µM | IC (TGI) [29]: 87.1 µM | IC (TGI) ([30]; MOLT-4, read-out: Log10 TGI): 12.9 µM | IC (TGI) ([30]; MOLT-4, read-out: concentration for cytostasis): ~100 µM | GI50 ([30]; MOLT-4, read-out: concentration for primary growth inhibition): < 0.1 µM | GI50 [31, 37]: 0.012 µM | IC (TGI) [31, 36]: > 100 µM | GI50 [32, 37]: 1.15 µM | CC50 [32, 35]: > 100 µM | IC (TGI) [32, 36]: 26.3 µM | GI50 [33, 37]: 0.263 µM | IC (TGI) [33, 36]: 49 µM | IC (TGI) [34]: 15.1 µM
